We go through four compounds from patent US11607421B2, “Ethanolamine-based lipid biosynthetic compounds, method of making and use thereof” (Metanoi Therapeutics, Inc., priority 2016, dated 2023).

Read-outs that look alike come from different tables or passages of the source.

The target of one series is FR1 (Homo sapiens, UniProt P15328). The note with it: read-out: affinity; cited from earlier work.
In a further series the target is FR2 (Homo sapiens, UniProt P14207). Particulars: read-out: affinity; cited from earlier work.
Chain of FR2 (P14207 17-230): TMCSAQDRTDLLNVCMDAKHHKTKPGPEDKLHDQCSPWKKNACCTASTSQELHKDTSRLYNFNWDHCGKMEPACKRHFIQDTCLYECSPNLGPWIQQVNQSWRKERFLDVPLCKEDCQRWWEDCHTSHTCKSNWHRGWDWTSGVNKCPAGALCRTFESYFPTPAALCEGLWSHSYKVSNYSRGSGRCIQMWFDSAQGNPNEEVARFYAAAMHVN
The target of the next series is KIFC1 (Homo sapiens, UniProt Q9BW19). Particulars: ATP-competitive, MT-noncompetitive; cited from earlier work.
Series [1] relates to BT-549 breast cancer cells. The note with it: cells with amplified centrosomes; cited from earlier work.
The nature of series [2]: Stability in simulated gastric fluid (SGF). It is filed as in vitro ADME. Particulars: 10 μM, SGF pH 1.2, over 1 h. As to the method:
(§1) Samples (100 μl) were drawn at 0, 15, 30 and 60 min from SGF reaction-vials and at 0, 30, 60 and 120 min from SIF reaction-vials, quenched with acetonitrile, vortex-mixed, and centrifuged before supernatant analysis by LC-MS/MS analysis. […] For PK studies, a sparse sampling design with 3 mice per time point was used to collect blood samples at 5, 10, 15, 30 min and 1, 2, 3, 4, 5 and 6 h in K2EDTA-coated tubes. The pharmacokinetic parameters (AUClast, Cmax, CL and Vss) were calculated using non-compartmental analysis tool of Phoenix WinNonlin software (version 6.3).
(§2) Given the extreme pH and various digestive enzymes, the GI tract presents a harsh environment to any ingested xenobiotic. Thus, many potential drug candidates are degraded in the GI tract, explaining their decreased bioavailability or inability to reach the target at effective concentrations. Simulated gastric fluid (SGF; pH 1.2) and simulated intestinal fluid (SIF; pH 6.8) closely mimic the GI tract environment and are amenable in vitro systems to evaluate degradation of a compound in GI tract (US Pharmacopoia).
(§3) Simulated gastric fluid was prepared as per U.S. Pharmacopeia (USP) methods. Sodium chloride (2 g) and pepsin (3.2 g, from porcine stomach mucosa) were dissolved in 7.0 ml hydrochloric acid and Milli-Q water to make up the volume to 1000 ml and the pH was adjusted to 1.2. […]

Series [3] can be described thus: Stability in simulated intestinal fluid (SIF). The format is in vitro ADME. The note with it: 10 μM, SIF pH 6.8, after 2 h. As to the method:
as §1, §2, §3

Series [4] can be described thus: Blood plasma concentration ratio assay. The format is in vitro ADME, mice. Particulars: whole blood; mouse blood, 37° C.; read-out: Blood to plasma ratio (BPR). As to the method:
Values and error bars shown in the figure represent mean and SE, respectively.
100 μl and 300 μl aliquots were collected at time points 0, 15, 30 and 60 min. 100 μl water was added to each of the 100 μl aliquots followed by vortexing, centrifugation at 8000 g for 10 min, and collection of the supernatants for bioanalysis. The 300 μL aliquots were centrifuged at 8000 g for 10 min to separate the plasma, followed by collection of the supernatants for bioanalysis.

The nature of series [5]: Pharmacokinetic studies, single oral and intravenous dose. It is filed as in vivo, BALB/c mice. The note with it: male, BALB/c, mouse, plasma, analyte PhosE; for Cmax: read-out: Cmax/C0. As to the method:
as §1
Nine animals per group were used for PK studies. A sparse sampling design was used to collect blood samples from animals at 5 min, 10 min, 15 min, 30 min, 1, 2, 3, 4, 5, and 6 h in K2EDTA coated tubes. Plasma was collected from blood by centrifugation of samples at 8000 g for 10 min. Plasma samples were stored below −60° C. until further analysis.
PK parameters were calculated from the concentration-time data using the non-compartmental analysis tool of Phoenix WinNolin® software (version 6.3, Pharsight, St Louis, Mo.). The area under the concentration time curve (AUClast) was calculated by the linear trapezoidal rule. Following oral administration, peak concentration (Cmax) and time for the peak concentration (Tmax) were the observed values. The clearance (CL) and volume of distribution (Vss) were estimated following IV dose administration. The elimination rate constant value (k) was obtained by linear regression of the log-linear terminal phase of the concentration-time profile using at least three declining concentrations in terminal phase with a correlation coefficient of >0.8. The terminal half-life value (T1/2) was calculated using the equation ln 2/k. Oral bioavailability was calculated by taking the ratio of dose normalized AUClast following oral administration to IV administration.

Series [6] deals with PC-3 cells. In words: MTT cell proliferation assay. It is filed as cell-based, human. The note with it: MTT, 48 h, pH 7.4. As to the method:
(§4) Next, a clonogenic cell survival assay was performed to assess the reproductive capacity of cells upon drug removal.
(§5) After 48 h, drug containing medium was replaced by medium containing MTT (tetrazolium bromide) at a concentration of 0.5 mg/ml. The yellow tetrazolium salt is reduced to insoluble purple formazan by viable cells. After 4 h of incubation in dark, formazan crystals produced by viable cells were dissolved by 200 μl DMSO and the amount of formazan crystals formed was quantified by recording the absorbance at 570 nm using multi-well plate reader. […] After 10 days, colonies were fixed with 4% formaldehyde, stained with crystal violet and counted.
On the technique in general: Tetrazolium assays rely on reduction of a dye to a coloured formazan, in cell work by metabolically active cells.

The subject of series [7] is PC-3 cells. In words: Clonogenic cell survival (colony) assay. The format is cell-based, human. Particulars: 2 mg/ml, 48 h treatment, colonies after 10 days. The protocol:
as §4, §5

The test system of series [8] is PC-3 cells. In words: Intracellular levels of Etn and PhosE by LC-MS/MS. The note with it: 1 mg/ml, 48 h, pH 7.4. It is filed as cell-based, human.
A further series concerns the target CYP1A2 (Homo sapiens, UniProt P05177). In words: CYP inhibition in human liver microsomes. For orientation: Microsomes from liver hold many membrane-bound enzymes, among them those of drug oxidation.
The next series concerns the target CYP2A6 (Homo sapiens, UniProt P11509). In words: CYP inhibition in human liver microsomes.
The next series deals with CYP2B6 (Homo sapiens, UniProt P20813). Kind of series: CYP inhibition in human liver microsomes.
Chain of CYP2B6 (P20813 whole entry): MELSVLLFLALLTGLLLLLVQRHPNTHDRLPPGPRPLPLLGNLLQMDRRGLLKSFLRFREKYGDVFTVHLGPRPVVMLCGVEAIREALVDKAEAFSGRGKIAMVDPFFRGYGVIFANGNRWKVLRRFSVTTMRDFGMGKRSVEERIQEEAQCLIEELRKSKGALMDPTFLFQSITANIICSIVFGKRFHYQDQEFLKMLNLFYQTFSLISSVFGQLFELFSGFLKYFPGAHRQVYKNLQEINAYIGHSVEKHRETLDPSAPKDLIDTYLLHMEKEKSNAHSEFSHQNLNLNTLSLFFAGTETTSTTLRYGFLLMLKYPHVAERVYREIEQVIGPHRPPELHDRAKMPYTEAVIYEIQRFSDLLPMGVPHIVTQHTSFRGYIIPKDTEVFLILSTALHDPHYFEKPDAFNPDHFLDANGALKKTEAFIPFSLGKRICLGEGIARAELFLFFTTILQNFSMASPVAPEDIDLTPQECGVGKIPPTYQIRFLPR
In a further series the target is CYP2C8 (Homo sapiens, UniProt P10632). Kind of series: CYP inhibition in human liver microsomes.
Chain of CYP2C8 (P10632 whole entry): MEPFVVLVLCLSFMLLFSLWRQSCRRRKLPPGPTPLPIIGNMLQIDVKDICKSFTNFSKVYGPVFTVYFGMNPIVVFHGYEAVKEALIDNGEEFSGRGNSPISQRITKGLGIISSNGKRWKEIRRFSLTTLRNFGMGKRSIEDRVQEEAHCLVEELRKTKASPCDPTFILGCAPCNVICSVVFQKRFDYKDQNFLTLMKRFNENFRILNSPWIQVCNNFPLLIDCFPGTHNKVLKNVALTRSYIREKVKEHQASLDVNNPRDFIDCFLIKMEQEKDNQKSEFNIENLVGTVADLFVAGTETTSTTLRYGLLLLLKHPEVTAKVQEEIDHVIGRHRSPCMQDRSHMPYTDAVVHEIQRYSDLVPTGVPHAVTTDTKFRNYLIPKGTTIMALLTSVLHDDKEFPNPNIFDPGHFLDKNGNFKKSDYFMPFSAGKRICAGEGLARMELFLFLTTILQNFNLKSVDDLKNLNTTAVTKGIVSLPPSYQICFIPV
Another series has as its target CYP2C9 (Homo sapiens, UniProt P11712). Kind of series: CYP inhibition in human liver microsomes.
The next series has as its target CYP2C19 (Homo sapiens, UniProt P33261). In words: CYP inhibition in human liver microsomes.
The next series concerns the target CYP2D6 (Homo sapiens, UniProt P10635). In words: CYP inhibition in human liver microsomes.
The target in another series is CYP2E1 (Homo sapiens, UniProt P05181). In words: CYP inhibition in human liver microsomes.
Chain of CYP2E1 (P05181 whole entry): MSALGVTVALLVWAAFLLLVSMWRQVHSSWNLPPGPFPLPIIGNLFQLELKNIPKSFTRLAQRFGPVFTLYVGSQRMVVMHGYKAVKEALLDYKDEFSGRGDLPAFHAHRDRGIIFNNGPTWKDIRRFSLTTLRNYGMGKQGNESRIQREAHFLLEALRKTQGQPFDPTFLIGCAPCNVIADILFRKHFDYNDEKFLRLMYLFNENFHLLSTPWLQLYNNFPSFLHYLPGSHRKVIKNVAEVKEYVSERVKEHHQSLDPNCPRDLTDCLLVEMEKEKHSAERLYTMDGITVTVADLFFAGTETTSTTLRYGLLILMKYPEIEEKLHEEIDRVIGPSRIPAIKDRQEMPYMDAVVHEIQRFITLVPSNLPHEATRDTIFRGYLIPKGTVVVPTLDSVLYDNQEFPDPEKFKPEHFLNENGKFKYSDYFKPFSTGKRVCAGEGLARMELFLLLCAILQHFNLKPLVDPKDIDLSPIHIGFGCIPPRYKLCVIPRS
Another series addresses CYP3A4 (Homo sapiens, UniProt P08684). In words: CYP inhibition in human liver microsomes.

Chain of CYP3A4 (P08684 whole entry): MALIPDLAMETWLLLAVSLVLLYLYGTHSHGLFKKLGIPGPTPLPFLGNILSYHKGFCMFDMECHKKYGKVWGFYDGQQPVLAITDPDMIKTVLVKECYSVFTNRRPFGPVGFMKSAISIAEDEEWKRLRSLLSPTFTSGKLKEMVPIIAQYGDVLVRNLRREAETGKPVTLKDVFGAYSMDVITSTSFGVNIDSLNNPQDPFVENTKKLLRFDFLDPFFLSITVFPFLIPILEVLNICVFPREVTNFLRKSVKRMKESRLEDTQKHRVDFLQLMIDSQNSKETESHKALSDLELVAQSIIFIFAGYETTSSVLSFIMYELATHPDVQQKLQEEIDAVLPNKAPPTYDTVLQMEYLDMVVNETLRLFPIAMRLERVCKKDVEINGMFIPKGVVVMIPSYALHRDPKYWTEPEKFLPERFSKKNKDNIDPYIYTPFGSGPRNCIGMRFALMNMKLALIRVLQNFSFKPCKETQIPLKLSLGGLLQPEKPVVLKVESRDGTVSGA
Chain of FR1 (P15328 25-234): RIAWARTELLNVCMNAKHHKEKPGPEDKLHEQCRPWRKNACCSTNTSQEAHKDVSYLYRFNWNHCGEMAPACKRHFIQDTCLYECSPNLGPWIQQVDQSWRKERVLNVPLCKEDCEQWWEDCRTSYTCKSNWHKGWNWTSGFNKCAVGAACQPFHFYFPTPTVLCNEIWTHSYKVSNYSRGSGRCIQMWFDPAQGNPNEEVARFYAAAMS
Chain of CYP2D6 (P10635 whole entry): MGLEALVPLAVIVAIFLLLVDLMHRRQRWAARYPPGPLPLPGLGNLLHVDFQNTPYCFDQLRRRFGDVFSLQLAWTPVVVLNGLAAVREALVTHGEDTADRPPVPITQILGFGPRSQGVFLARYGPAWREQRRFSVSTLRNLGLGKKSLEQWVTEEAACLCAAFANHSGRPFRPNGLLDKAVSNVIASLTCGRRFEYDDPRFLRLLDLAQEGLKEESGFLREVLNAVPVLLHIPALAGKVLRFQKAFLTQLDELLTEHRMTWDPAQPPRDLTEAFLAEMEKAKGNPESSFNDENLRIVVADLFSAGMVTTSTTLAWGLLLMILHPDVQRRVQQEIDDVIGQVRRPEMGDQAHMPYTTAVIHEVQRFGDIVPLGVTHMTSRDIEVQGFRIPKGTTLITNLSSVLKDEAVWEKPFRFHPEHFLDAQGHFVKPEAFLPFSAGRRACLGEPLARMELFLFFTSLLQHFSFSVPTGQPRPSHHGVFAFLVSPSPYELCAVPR
Chain of CYP2C9 (P11712 whole entry): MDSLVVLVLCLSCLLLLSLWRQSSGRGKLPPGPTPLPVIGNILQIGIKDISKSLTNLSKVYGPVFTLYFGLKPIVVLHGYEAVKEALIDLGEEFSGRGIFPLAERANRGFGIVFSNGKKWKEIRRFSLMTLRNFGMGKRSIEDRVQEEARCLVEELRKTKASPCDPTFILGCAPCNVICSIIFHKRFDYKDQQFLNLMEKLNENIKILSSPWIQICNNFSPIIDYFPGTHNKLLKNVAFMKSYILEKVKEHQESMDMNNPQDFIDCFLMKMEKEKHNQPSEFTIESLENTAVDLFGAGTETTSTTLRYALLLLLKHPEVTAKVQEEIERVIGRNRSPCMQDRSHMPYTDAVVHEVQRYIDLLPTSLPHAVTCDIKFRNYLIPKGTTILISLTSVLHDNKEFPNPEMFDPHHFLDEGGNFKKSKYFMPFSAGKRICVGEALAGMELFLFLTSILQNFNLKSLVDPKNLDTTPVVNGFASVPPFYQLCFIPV
Chain of CYP2C19 (P33261 whole entry): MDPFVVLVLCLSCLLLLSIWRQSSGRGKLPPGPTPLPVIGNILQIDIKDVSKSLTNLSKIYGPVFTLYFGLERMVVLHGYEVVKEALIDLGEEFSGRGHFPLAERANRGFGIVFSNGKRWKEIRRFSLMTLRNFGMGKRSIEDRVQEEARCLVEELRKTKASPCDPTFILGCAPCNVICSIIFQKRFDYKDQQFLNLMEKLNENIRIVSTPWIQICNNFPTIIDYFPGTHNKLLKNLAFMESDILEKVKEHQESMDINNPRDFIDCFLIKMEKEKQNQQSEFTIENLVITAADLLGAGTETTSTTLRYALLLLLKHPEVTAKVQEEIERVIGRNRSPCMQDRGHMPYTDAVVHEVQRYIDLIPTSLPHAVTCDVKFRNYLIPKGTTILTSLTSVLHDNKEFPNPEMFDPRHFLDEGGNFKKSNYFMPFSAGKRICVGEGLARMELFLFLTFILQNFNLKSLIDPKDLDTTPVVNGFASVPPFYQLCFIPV
Chain of CYP2A6 (P11509 whole entry): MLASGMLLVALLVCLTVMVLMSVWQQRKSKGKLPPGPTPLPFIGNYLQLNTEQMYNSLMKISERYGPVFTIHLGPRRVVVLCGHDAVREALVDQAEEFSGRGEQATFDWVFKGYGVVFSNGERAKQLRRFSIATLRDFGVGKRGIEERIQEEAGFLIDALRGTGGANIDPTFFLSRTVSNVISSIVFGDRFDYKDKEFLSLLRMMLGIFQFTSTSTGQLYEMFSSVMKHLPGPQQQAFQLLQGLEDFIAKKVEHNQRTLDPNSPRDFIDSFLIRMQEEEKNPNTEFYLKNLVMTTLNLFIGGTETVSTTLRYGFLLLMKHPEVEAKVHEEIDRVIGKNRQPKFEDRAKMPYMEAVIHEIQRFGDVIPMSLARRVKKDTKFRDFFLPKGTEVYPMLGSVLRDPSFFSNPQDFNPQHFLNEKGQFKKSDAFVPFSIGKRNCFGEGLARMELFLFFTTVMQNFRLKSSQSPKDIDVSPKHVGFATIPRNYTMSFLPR
Chain of CYP1A2 (P05177 whole entry): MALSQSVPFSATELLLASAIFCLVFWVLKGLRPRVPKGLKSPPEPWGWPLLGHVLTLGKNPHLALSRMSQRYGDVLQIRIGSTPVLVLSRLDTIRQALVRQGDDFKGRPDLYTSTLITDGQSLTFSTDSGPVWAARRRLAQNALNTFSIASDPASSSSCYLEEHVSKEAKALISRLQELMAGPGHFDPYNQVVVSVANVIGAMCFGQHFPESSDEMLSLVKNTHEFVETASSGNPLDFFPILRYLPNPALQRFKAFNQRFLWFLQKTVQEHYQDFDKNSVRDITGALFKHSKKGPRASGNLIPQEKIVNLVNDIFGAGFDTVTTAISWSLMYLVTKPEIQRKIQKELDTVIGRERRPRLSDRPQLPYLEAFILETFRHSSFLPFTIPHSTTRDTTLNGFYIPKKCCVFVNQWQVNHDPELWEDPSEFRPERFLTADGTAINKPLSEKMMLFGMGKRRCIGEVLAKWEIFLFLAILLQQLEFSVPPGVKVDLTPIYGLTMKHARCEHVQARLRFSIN

Turning to `CN1c2c(nc(N)[nH]c2=O)NC[C@@H]1CNc1ccc(C(=O)N[C@@H](CCC(=O)O)C(=O)O)cc1` [6S 5-methyltetrahydrofolate], the Kd on FR1 was 0.055 µM; on FR2 it was 0.001 µM.
What is called Ki is a dissociation constant, usually derived from enzyme kinetics or from competition with a known ligand. For the compound `CCCc1cc(C(=O)N[C@H](Cc2ccc(-c3cccc(OC(F)(F)F)c3)nc2)C(=O)N[C@@H]2CCNC2)sc1C` [AZ82], the Ki on KIFC1 is 0.043 µM. In series [1], the centrosome declustering result is given as “causes centrosome declustering”.
In general, half-life refers to the time needed for the level to fall by half in the phase considered. Lower therefore signals fast loss. As usually defined, the AUC(0-t) is exposure summed from dosing to a finite time, without extrapolation to infinity. What is called MRT last is a mean duration of stay, worked out from the concentration-time curve. For orientation: bioavailability means the share of a dose that reaches the circulation, judged against a reference dose that is usually intravenous. The Tmax is the time from dosing to the highest level. One may read the IC50 as the point on the concentration scale where inhibition reaches its midpoint. Low readings indicate greater potency, high ones weaker potency. Consider `NCCOP(=O)(O)O` [PhosE, phosphoethanolamine], for which the “stability in SGF” value in series [2] is “stable”. For the same compound, in series [3], the “decrease in concentration in SIF” value was roughly 35%. The blood plasma ratio at 50 μM in series [4] is less than 1.5. Also, the half-life in [5] (iv, 3 mg/kg, PhosE 3 mg/kg iv) is less than 1 h. Besides, the AUC(0-t) in series [5] (PhosE 3 mg/kg iv) turned out to be 490 ng·h/mL; in series [5] (PhosE 60 mg/kg po) it was 1890 ng·h/mL. Besides, the mean residence time MRT last in [5] (PhosE 3 mg/kg iv) is 0.79 h. The compound also showed a clearance in [5] (PhosE 3 mg/kg iv) of 102 mL/min/kg. Also, the Cmax was 1250 ng/mL in series [5] (PhosE 3 mg/kg iv) and 1140 ng/mL in [5] (PhosE 60 mg/kg po). Moreover, in series [5] (PhosE 3 mg/kg iv, read-out: Vss), the Vd came out at 4.82 L/kg. Also, the bioavailability in [5] (PhosE 60 mg/kg po vs 3 mg/kg iv, read-out: F (oral bioavailability)) is 19%. In series [5] (PhosE 60 mg/kg po), the time to peak (Tmax) was 1 h. Also, the “inhibition of PC-3 cell proliferation” value in the series on PC-3 cells [6] is listed as “only showed limited inhibition of PC-3 cell proliferation up to 0.5 mg/ml”. Further, the “decrease in colony numbers compared to control cells” value with PC-3 cells [7] is recorded as “ineffective in decreasing colony numbers”. Further, the “increase in intracellular PhosE levels compared to control cells” value in the series on PC-3 cells [8] is roughly 15 fold. In addition, the concentration for half-maximal inhibition (IC50) against CYP1A2, at CYP2A6, at CYP2B6, against CYP2C8, against CYP2C9 and at CYP2C19 was greater than 100 µM in each case. The concentration for half-maximal inhibition (IC50) against CYP2D6 is greater than 100 µM; against CYP2E1 it was greater than 100 µM; at CYP3A4 it was greater than 100 µM; against CYP3A4 (3A4-mida: CYP3A4 substrate midazolam, human liver microsomes), greater than 100 µM; at CYP3A4 (3A4-testo: CYP3A4 substrate testosterone, human liver microsomes) it was greater than 100 µM.
Consider `Nc1nc2c(c(=O)[nH]1)N(C=O)C(CNc1ccc(C(=O)N[C@@H](CCC(=O)O)C(=O)O)cc1)CN2` (stereo partly drawn) [leucovorin, 6S 5-formyltetrahydrofolate], for which the Kd on FR1 was 0.8 µM; on FR2, 0.007 µM.
